# Measurements: PubChem BioAssay (NCI)
#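 A five-concentration, 48-hour dose response in 96-well plates underlies each endpoint, interpolated linearly between surrounding concentrations. Abbreviation: GI50, concentration required for 50% inhibition of growth. Definition used: TGI = concentration required for complete inhibition of growth.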
# Legend:
# Assay in all cases: NCI tumour cell line growth inhibition, 48 h
# [1] = system: SNB-75 CNS
# [2] = system: SNB-19 CNS
# [3] = system: NCI/ADR-RES ovarian
# [4] = system: HT29 colon
# [5] = system: SN12C renal
# [6] = system: A498 renal
# [7] = system: NCI-H226 lung
# [8] = system: M14 melanoma
# [9] = system: HOP-92 NSCLC
# [10] = system: DU-145 prostate
# [11] = system: KM12 colon
# [12] = system: OVCAR-5 ovarian
# [13] = system: COLO 205 colon
# [14] = system: SR leukemia
# [15] = system: MCF7 breast
# [16] = system: HCC-2998 colon
# [17] = system: NCI-H23 lung
# [18] = system: EKVX NSCLC
# [19] = system: OVCAR-8 ovarian
# [20] = system: MOLT-4 leukemia
# [21] = system: RPMI-8226 leukemia
# [22] = system: ACHN renal
# [23] = system: CCRF-CEM leukemia
# [24] = system: A549 NSCLC
# [25] = system: SK-MEL-2 melanoma
# [26] = system: PC-3 prostate
# [27] = system: OVCAR-4 ovarian
# [28] = system: HS 578T breast
# [29] = system: CAKI-1 renal
# [30] = system: RXF 393 renal
# [31] = system: HCT-116 colon
# [32] = system: K-562 leukemia
# [33] = system: U251 CNS
# [34] = system: MDA-MB-435
# [35] = system: IGROV1 ovarian
# [36] = system: T-47D breast
# [37] = system: NCI-H460 lung
# [38] = system: UO-31 renal
# [39] = system: HCT-15 colon
# [40] = system: UACC-257 melanoma
# [41] = system: SF-539 CNS
# [42] = system: TK-10 renal
# [43] = system: 786-0 renal
# [44] = system: MDA-MB-231 breast
# [45] = system: SK-OV-3 ovarian
# [46] = system: SW-620 colon
# [47] = system: HL-60(TB) leukemia
# [48] = system: SK-MEL-28 melanoma
# [49] = system: UACC-62 melanoma
# [50] = system: NCI-H522 lung
# [51] = system: OVCAR-3 ovarian
# [52] = system: SF-295 CNS
# [53] = system: SF-268 CNS
# [54] = system: HOP-62 NSCLC
# [55] = system: SK-MEL-5 melanoma
# [56] = system: BT-549 breast
# [57] = system: LOX IMVI melanoma
smiles,measurement,setting,value
COc1ccc(-c2[nH]c(=O)n(C3OC(CO)C(O)C(O)C3O)c(=O)c2C#N)cc1 (centres undefined),TGI,[1],> 100 µM
same,TGI,[2],> 100 µM
same,TGI,[3],> 100 µM
same,TGI,[4],> 100 µM
same,TGI,[5],> 100 µM
same,TGI,[6],> 100 µM
same,TGI,[7],> 100 µM
same,TGI,[8],> 100 µM
same,TGI,[9],> 100 µM
same,TGI,[10],> 100 µM
same,TGI,[11],> 100 µM
same,TGI,[12],> 100 µM
same,TGI,[13],> 100 µM
same,TGI,[14],> 100 µM
same,TGI,[15],> 100 µM
same,TGI,[16],> 100 µM
same,TGI,[17],> 100 µM
same,TGI,[18],> 100 µM
same,TGI,[19],> 100 µM
same,TGI,[20],> 100 µM
same,TGI,[21],> 100 µM
same,TGI,[22],> 100 µM
same,TGI,[23],> 100 µM
same,TGI,[24],> 100 µM
same,TGI,[25],> 100 µM
same,TGI,[26],> 100 µM
same,TGI,[27],> 100 µM
same,TGI,[28],> 100 µM
same,TGI,[29],> 100 µM
same,TGI,[30],> 100 µM
same,TGI,[31],> 100 µM
same,TGI,[32],> 100 µM
same,TGI,[33],> 100 µM
same,TGI,[34],> 100 µM
same,TGI,[35],> 100 µM
same,TGI,[36],> 100 µM
same,TGI,[37],> 100 µM
same,TGI,[38],> 100 µM
same,TGI,[39],> 100 µM
same,TGI,[40],> 100 µM
same,TGI,[41],> 100 µM
same,TGI,[42],> 100 µM
same,TGI,[43],> 100 µM
same,TGI,[44],> 100 µM
same,TGI,[45],> 100 µM
same,TGI,[46],> 100 µM
same,TGI,[47],> 100 µM
same,TGI,[48],> 100 µM
same,TGI,[49],> 100 µM
same,TGI,[50],> 100 µM
same,TGI,[51],> 100 µM
same,TGI,[52],> 100 µM
same,TGI,[53],> 100 µM
same,TGI,[54],> 100 µM
same,TGI,[55],> 100 µM
same,TGI,[56],> 100 µM
CC(=O)Nc1ccc(-c2csc(Nc3ccc(-c4csc(-c5ccccc5)n4)cc3)n2)cc1,GI50,[2],16.5 µM
same,TGI,[2],> 50 µM
same,GI50,[3],11.1 µM
same,TGI,[3],37.2 µM
same,GI50,[5],5.64 µM
same,TGI,[5],23.9 µM
same,GI50,[6],12.5 µM
same,TGI,[6],25.6 µM
same,GI50,[8],> 50 µM
same,TGI,[8],> 50 µM
same,GI50,[9],> 50 µM
same,TGI,[9],> 50 µM
same,GI50,[10],36.1 µM
same,TGI,[10],> 50 µM
same,GI50,[11],25.5 µM
same,TGI,[11],> 50 µM
same,GI50,[12],12.6 µM
same,TGI,[12],42.6 µM
same,GI50,[13],> 50 µM
same,TGI,[13],> 50 µM
same,GI50,[14],9.64 µM
same,TGI,[14],45.2 µM
same,GI50,[15],16.3 µM
same,TGI,[15],> 50 µM
same,GI50,[17],3.73 µM
same,TGI,[17],20.1 µM
same,GI50,[18],12.9 µM
same,TGI,[18],> 50 µM
same,GI50,[19],10.7 µM
same,TGI,[19],> 50 µM
same,GI50,[21],> 50 µM
same,TGI,[21],> 50 µM
same,GI50,[22],7.53 µM
same,TGI,[22],27.9 µM
same,GI50,[23],> 50 µM
same,TGI,[23],> 50 µM
same,GI50,[24],12.6 µM
same,TGI,[24],> 50 µM
same,GI50,[26],20.6 µM
same,TGI,[26],> 50 µM
same,GI50,[28],40.9 µM
same,TGI,[28],> 50 µM
same,GI50,[29],20.9 µM
same,TGI,[29],> 50 µM
same,GI50,[30],13.3 µM
same,TGI,[30],> 50 µM
same,GI50,[31],> 50 µM
same,TGI,[31],> 50 µM
same,GI50,[32],5.52 µM
same,TGI,[32],> 50 µM
same,GI50,[33],7.16 µM
same,TGI,[33],21.3 µM
same,GI50,[34],19.1 µM
same,TGI,[34],> 50 µM
same,GI50,[35],10.9 µM
same,TGI,[35],40.2 µM
same,GI50,[57],31 µM
same,TGI,[57],> 50 µM
same,GI50,[36],26.5 µM
same,TGI,[36],> 50 µM
same,GI50,[37],7.94 µM
same,TGI,[37],> 50 µM
same,GI50,[38],> 50 µM
same,TGI,[38],> 50 µM
same,GI50,[39],17.4 µM
same,TGI,[39],> 50 µM
same,GI50,[40],> 50 µM
same,TGI,[40],> 50 µM
same,GI50,[42],16.4 µM
same,TGI,[42],> 50 µM
same,GI50,[43],32.2 µM
same,TGI,[43],> 50 µM
same,GI50,[44],6.94 µM
same,TGI,[44],27.8 µM
same,GI50,[45],9.08 µM
same,TGI,[45],> 50 µM
same,GI50,[46],> 50 µM
same,TGI,[46],> 50 µM
same,GI50,[47],37.4 µM
same,TGI,[47],> 50 µM
same,GI50,[48],7.14 µM
same,TGI,[48],42.9 µM
same,GI50,[49],5.98 µM
same,TGI,[49],> 50 µM
same,GI50,[50],16.3 µM
same,TGI,[50],41.5 µM
same,GI50,[51],> 50 µM
same,TGI,[51],> 50 µM
same,GI50,[52],36.3 µM
same,TGI,[52],> 50 µM
same,GI50,[53],19.9 µM
same,TGI,[53],> 50 µM
same,GI50,[54],> 50 µM
same,TGI,[54],> 50 µM
same,GI50,[55],11.1 µM
same,TGI,[55],41.2 µM
same,GI50,[56],11.4 µM
same,TGI,[56],> 50 µM
